From ChEMBL document CHEMBL2440022, “Development of a novel fluorine-18 labeled deuterated fluororasagiline ([(18)F]fluororasagiline-D2) radioligand for PET studies of monoamino oxidase B (MAO-B)” (Bioorg Med Chem, 2013)

How the values were obtained:
[1] = Drug uptake in cynomolgus monkey cerebellum at 168 to 174 MBq, iv after 60 mins by PET analysis; format: ADME, organism-based, Macaca fascicularis; settings: in vivo, 1 h
[2] = Drug uptake in cynomolgus monkey striatum at 168 to 174 MBq, iv after 60 mins by PET analysis; format: ADME, organism-based, Macaca fascicularis; settings: in vivo, 1 h
Thalamus [3] = assay: Drug uptake in cynomolgus monkey thalamus at 168 to 174 MBq, iv after 60 mins by PET analysis in presence of L-deprenyl; format: ADME, organism-based, Macaca fascicularis; settings: in vivo, 1 h
Brain = assay: Drug uptake in cynomolgus monkey brain at 168 to 174 MBq, iv after 4 mins by PET analysis; format: ADME, organism-based, Macaca fascicularis; settings: in vivo
[4] = Drug recovery in cynomolgus monkey plasma at 168 to 174 MBq, iv by RP-HPLC analysis in presence of acetonitrile; format: ADME, organism-based, Macaca fascicularis; settings: read-out: Drug recovery
Cynomolgus monkey [5] = assay: Drug metabolism in cynomolgus monkey plasma assessed as radiometabolite M1 retention time at 168 to 174 MBq, iv RP-HPLC analysis; format: ADME, organism-based, Macaca fascicularis
[6] = Drug uptake in cynomolgus monkey cortex at 168 to 174 MBq, iv after 60 mins by PET analysis; format: ADME, organism-based, Macaca fascicularis; settings: in vivo, 1 h
[7] = Stability in cynomolgus monkey plasma assessed as unchanged parent compound at 168 to 174 MBq, iv after 45 mins by RP-HPLC analysis; format: ADME, organism-based, Macaca fascicularis; settings: read-out: Stability
[8] = Stability in cynomolgus monkey plasma assessed as unchanged parent compound at 168 to 174 MBq, iv after 15 mins by RP-HPLC analysis; format: ADME, organism-based, Macaca fascicularis; settings: read-out: Stability
[9] = Drug uptake in cynomolgus monkey cerebellum at 168 to 174 MBq, iv after 60 mins by PET analysis in presence of L-deprenyl; format: ADME, organism-based, Macaca fascicularis; settings: in vivo, 1 h
[10] = Chemical stability of the compound in PBS at pH 7.4 after 180 mins; format: physicochemical; settings: read-out: Stability
[11] = Drug uptake in cynomolgus monkey striatum at 168 to 174 MBq, iv after 60 mins by PET analysis in presence of L-deprenyl; format: ADME, organism-based, Macaca fascicularis; settings: in vivo, 1 h
Thalamus [12] = assay: Drug uptake in cynomolgus monkey thalamus at 168 to 174 MBq, iv after 60 mins by PET analysis; format: ADME, organism-based, Macaca fascicularis; settings: in vivo, 1 h
Cynomolgus monkey [13] = assay: Drug metabolism in cynomolgus monkey plasma assessed as radiometabolite M2 retention time at 168 to 174 MBq, iv by RP-HPLC analysis; format: ADME, organism-based, Macaca fascicularis
[14] = Stability in cynomolgus monkey plasma assessed as unchanged parent compound at 168 to 174 MBq, iv after 120 mins by RP-HPLC analysis; format: ADME, organism-based, Macaca fascicularis; settings: read-out: Stability
[15] = Drug uptake in cynomolgus monkey cortex at 168 to 174 MBq, iv after 60 mins by PET analysis in presence of L-deprenyl; format: ADME, organism-based, Macaca fascicularis; settings: in vivo, 1 h
[16] = target: T1, Amine oxidase [flavin-containing] B (Homo sapiens, UniProt P27338); assay: Inhibition of recombinant human MAO-B expressed in insect cells using kynuramine as substrate assessed as formation of 4-hydroxyquinoline measured every 5 mins for 30 mins; format: cell-based
T1 sequence (P27338 whole entry): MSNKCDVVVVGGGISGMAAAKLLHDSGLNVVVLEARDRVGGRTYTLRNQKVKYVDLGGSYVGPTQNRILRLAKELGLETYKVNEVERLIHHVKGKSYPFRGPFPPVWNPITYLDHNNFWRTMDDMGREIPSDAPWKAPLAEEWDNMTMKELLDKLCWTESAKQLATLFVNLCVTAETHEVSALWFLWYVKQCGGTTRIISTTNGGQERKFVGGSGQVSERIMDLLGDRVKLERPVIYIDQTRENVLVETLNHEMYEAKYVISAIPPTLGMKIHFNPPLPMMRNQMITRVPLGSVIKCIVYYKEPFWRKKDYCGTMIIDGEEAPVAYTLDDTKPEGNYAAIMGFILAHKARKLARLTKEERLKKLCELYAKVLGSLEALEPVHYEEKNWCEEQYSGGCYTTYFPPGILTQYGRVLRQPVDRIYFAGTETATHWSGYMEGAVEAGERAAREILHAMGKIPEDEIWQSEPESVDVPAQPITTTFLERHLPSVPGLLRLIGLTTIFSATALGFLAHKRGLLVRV

[17] = target: T2, Amine oxidase [flavin-containing] A (Homo sapiens, UniProt P21397); assay: Inhibition of recombinant human MAO-A expressed in insect cells using kynuramine as substrate assessed as formation of 4-hydroxyquinoline measured every 5 mins for 30 mins
T2 sequence (P21397 whole entry): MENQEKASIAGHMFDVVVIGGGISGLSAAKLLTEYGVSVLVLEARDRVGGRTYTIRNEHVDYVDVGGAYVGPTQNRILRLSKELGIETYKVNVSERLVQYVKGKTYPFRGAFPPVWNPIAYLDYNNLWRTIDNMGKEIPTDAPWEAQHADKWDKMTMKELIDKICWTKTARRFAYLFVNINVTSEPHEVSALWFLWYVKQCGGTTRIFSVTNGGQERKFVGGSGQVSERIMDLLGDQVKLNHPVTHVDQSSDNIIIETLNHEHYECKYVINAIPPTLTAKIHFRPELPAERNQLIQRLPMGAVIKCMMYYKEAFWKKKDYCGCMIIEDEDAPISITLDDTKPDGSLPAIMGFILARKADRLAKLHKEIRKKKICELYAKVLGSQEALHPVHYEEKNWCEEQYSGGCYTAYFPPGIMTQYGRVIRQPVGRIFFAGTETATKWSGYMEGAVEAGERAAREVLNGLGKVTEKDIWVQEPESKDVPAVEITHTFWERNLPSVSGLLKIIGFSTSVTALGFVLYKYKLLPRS

Homo sapiens = species on record: Homo sapiens; assay: Selectivity ratio of IC50 for recombinant human MAO-B to IC50 for recombinant human MAO-A; settings: tested as the 2H-labelled form

## [2H]C([2H])(C#C)N[C@@H]1c2ccccc2C[C@H]1[18F] [[18F]FLUORORASAGILINE-D2]
[1]
  SUV: 0.99%
[2]
  SUV: 1.38%
Thalamus [3]
  SUV: 0.78%
Brain
  SUV: 270%
[4]
  recovery: > 95%
Cynomolgus monkey [5]
  Retention_time: 2.9 min
[6]
  SUV: 1.1%
[7]
  remaining at 0.75 h: 50%
[8]
  remaining at 0.25 h: 75%
[9]
  SUV: 0.54%
[10]
  remaining at 3 h: > 97%
[11]
  SUV: 0.77%
Thalamus [12]
  SUV: 1.46%
Cynomolgus monkey [13]
  Retention_time: 6.7 min
[14]
  remaining at 2 h: 20%
[15]
  SUV: 0.66%

## C#CCN[C@H]1c2ccccc2C[C@@H]1F [FLUORORASAGILINE]
[16]
  IC50: 27 nM

## [2H]C([2H])(C#C)N[C@@H]1c2ccccc2C[C@H]1F
[17]
  IC50: 9900 nM
[16]
  IC50: 173 nM

## C#CCN[C@H]1c2ccccc2C[C@@H]1[18F] [[18F]FLUORORASAGILINE]
[7]
  remaining at 0.75 h: 55%
[14]
  remaining at 2 h: 35%

## C#CCN[C@@H]1c2ccccc2C[C@H]1F
Homo sapiens
  Ratio IC50: 19
